Assay results: PubChem BioAssay (NCI)
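Five compound concentrations were applied to cells in 96-well plates for 48 hours; endpoints were derived by simple linear interpolation of the resulting dose-response curve. TGI denotes the concentration required for complete inhibition of growth.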

Tests used:
Experiment in all cases: NCI tumour cell line growth inhibition, 48 h
M19-MEL melanoma = tested on: M19-MEL melanoma
SNB-78 CNS = tested on: SNB-78 CNS
KM20L2 colon = tested on: KM20L2 colon
DLD-1 colon = tested on: DLD-1 colon
LXFL 529 NSCLC = tested on: LXFL 529 NSCLC
DMS 114 small cell lung = tested on: DMS 114 small cell lung
RXF-631 renal = tested on: RXF-631 renal
DMS 273 small cell lung = tested on: DMS 273 small cell lung
SN12K1 renal = tested on: SN12K1 renal
P388/ADR leukemia = tested on: P388/ADR leukemia
P388 leukemia = tested on: P388 leukemia

Row | Structure (SMILES) | TGI (M19-MEL melanoma) | TGI (SNB-78 CNS) | TGI (KM20L2 colon) | TGI (DLD-1 colon) | TGI (LXFL 529 NSCLC) | TGI (DMS 114 small cell lung) | TGI (RXF-631 renal) | TGI (DMS 273 small cell lung) | TGI (SN12K1 renal) | TGI (P388/ADR leukemia) | TGI (P388 leukemia)
1 | Nc1nnc(CCC(=O)Nc2cc(Cl)ccc2Cl)n1N | > 100 µM | > 100 µM | > 100 µM | > 100 µM | > 100 µM | > 100 µM | > 100 µM | > 100 µM | – | – | –
2 | COc1cccc(/C=N/[N-]C(N)=O)c1[O-].[Ni+2].[OH3+] | – | – | 2.15 µM | – | – | – | – | – | – | – | –
3 | COc1cc(C2c3cc4c(cc3[C@@H](Nc3ccc(Oc5ccccc5)cc3)C3COC(=O)[C@H]23)OCO4)cc(OC)c1O (some centres undefined) | > 100 µM | > 100 µM | > 24.3 µM | > 100 µM | – | > 22.7 µM | – | – | > 100 µM | 3.49 µM | 1.88 µM
4 | CC(=O)Nc1ccc(C(=O)NN2C(=O)C(Cl)C2c2cccc([N+](=O)[O-])c2)cc1 (centres undefined) | > 100 µM | – | – | > 100 µM | > 100 µM | – | – | – | – | – | –
5 | CCOCC(=O)N(C)c1cccc2c3c(n(C)c12)CCCCC3 | > 100 µM | > 100 µM | > 100 µM | > 100 µM | – | > 100 µM | – | > 31.6 µM | > 100 µM | > 100 µM | > 100 µM
